Read-outs that look alike come from different tables or passages of the source. Bridge positions count the residues as written; N and C are the ends. Square brackets hold non-standard residues; d marks the D form. Peptide text beside a SMILES is read from it. R8 = C=CCCCCCC[C@@](C)(N)C(=O)O; S5 = C=CCCC[C@](C)(N)C(=O)O; Nle = CCCC[C@H](N)C(=O)O; Aib = CC(C)(N)C(=O)O
Experiments:
[1] = Circular dichroism (CD) analysis of alpha-helicity; type: physicochemical; settings: difference 50% TFE minus benign
Method: Peptide solutions were analyzed by CD spectroscopy using a spectropolarimeter. A temperature controller was used to maintain temperature control of the optical cell. Results are expressed as mean molar ellipticity [θ] (deg cm^2 dmol^−1) as calculated from the equation [θ]=θobs·MRW/10*l*c where θobs is the observed ellipticity in millidegrees, MRW is the mean residue weight of the peptide (peptide molecular weight/number of residues), 1 is the optical path length of the cell in centimeters, and c is the peptide concentration in mg/ml. Peptide concentrations were determined by amino acid analysis. Stock solutions of peptides were prepared in benign CD buffer (20 mM phosphoric acid, pH 2). The stock solutions were used to prepare peptide solutions of 0.05 mg/ml in either benign CD buffer or CD buffer with 50% trifluoroethanol (TFE) for analyses in a 10 mm path length cell. Variable wavelength measurements of peptide solutions were scanned at 4° C. from 195 to 250 nm, in 0.2 nm increments, and a scan rate 50 nm per minute. The average of six scans is reported.

MDM2 = MDM2 (Homo sapiens, UniProt Q00987); assay: Competitive fluorescence polarization assay for MDM2; type: binding
Sequence of MDM2 (Q00987 1-125): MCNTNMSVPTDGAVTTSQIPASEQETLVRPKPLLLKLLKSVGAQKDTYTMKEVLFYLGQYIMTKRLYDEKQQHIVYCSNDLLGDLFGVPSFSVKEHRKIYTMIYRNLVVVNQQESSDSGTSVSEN
Method: 1 mM of FAM-labeled linear peptide (in 100% DMSO) was diluted to 100 μM with DMSO (dilution 1:10). Then, diluted solution was further diluted from 100 μM to 10 μM with water (dilution 1:10), and diluted again with FP buffer from 10 μM to 40 nM (dilution 1:250). […] The diluted FAM-labeled peptides were kept in the dark until use.
Unlabeled peptide dose plates were prepared with FP buffer starting with 1 μM (final) of the peptide. […] 10 mM of the solution (in 100% DMSO) with DMSO to 5 mM (dilution 1:2); dilution from 5 mM to 500 μM with H2O (dilution 1:10); and dilution with FP buffer from 500 μM to 20 μM (dilution 1:25). […] 10 μl of 10 nM (4×) of FAM-labeled peptide was added into each well, and the wells were incubated for 3 h before being read.

MDMX = target: T1, MDMX (Homo sapiens, UniProt O15151); assay: Competitive fluorescence polarization assay for MDMX; type: binding
T1 sequence (O15151 1-125): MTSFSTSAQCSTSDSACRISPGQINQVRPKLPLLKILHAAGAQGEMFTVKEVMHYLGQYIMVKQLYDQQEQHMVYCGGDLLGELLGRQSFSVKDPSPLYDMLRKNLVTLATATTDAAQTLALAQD
Method: MDMX (40 kD) was diluted into FP buffer (high-salt buffer 200 mM NaCl, 5 mM CHAPS, pH 7.5) to make a 300 nM (2×) working stock solution. 20 μl of the 300 nM (2×) of protein stock solution was added into each well of 96-well black microplate. 1 mM (in 100% DMSO) of a FAM-labeled linear peptide was diluted with DMSO to a concentration of 100 μM (dilution 1:10). The solution was diluted from 100 M to 10 M with water (dilution 1:10), and diluted further with FP buffer from 10 μM to 40 nM (dilution 1:250). […] The diluted FAM-labeled peptide was kept in the dark until use. An unlabeled peptide dose plate was prepared with FP buffer starting with a concentration of 5 μM (final) of a peptide. […] 10 mM (in 100% DMSO) of the solution was diluted with DMSO to prepare a 5 mM (dilution 1:2) solution. The solution was diluted from 5 mM to 500 μM with H2O (dilution 1:10), and diluted further with FP buffer from 500 μM to 20 μM (dilution 1:25). […] 10 μl of the serially diluted unlabeled peptides were added to each well, which was filled with 20 μl of the 300 nM protein solution. 10 μl of the 10 nM (4×) FAM-labeled peptide solution was added into each well, and the wells were incubated for 3 h before reading.

[2] = competitive fluorescence polarization, MDM2, read-out: Ki (MDM2)
[3] = competitive fluorescence polarization, MDMX, read-out: Ki (MDMX)

Structure (SMILES) | Molar Ellipticity TFE-Molar Ellipticity Benign [1] [deg cm^2 dmol^−1] | Ki (MDM2; [2]) [nM] | Ki (MDMX; [3]) [nM] | also measured
CCCC[C@H](NC(=O)[C@H](CCC(N)=O)NC(=O)[C@H](CCC(N)=O)NC(=O)[C@]1(C)CCCC=CCCCCCC[C@@](C)(NC(=O)[C@H](Cc2ccccc2)NC(C)=O)C(=O)N[C@@H](C)C(=O)N[C@@H](Cc2ccc(O)cc2)C(=O)N[C@@H](Cc2c[nH]c3ccccc23)C(=O)N[C@@H]([C@@H](C)O)C(=O)N[C@@H](C)C(=O)N[C@@H](CC(C)C)C(=O)N1)C(=O)N[C@@H](C(N)=O)C(C)C [compound 41] (Ac-F[R8]AYWTAL[S5]QQ[Nle][dV]-NH2; staple 2-9) | 20410.4 | – | – | –
CC(C)C[C@H](NC(=O)CN(C)C)C(=O)N[C@H](C(=O)N[C@@H](Cc1ccccc1)C(=O)N[C@]1(C)CCCCCC/C=C/CCC[C@@](C)(C(=O)N[C@@H](C)C(=O)N[C@@H](C)C(=O)N[C@@H](C)C(=O)N[C@@H](C)C(=O)N[C@@H](C)C(=O)N[C@H](C)C(N)=O)NC(=O)[C@H](CC(C)C)NC(=O)[C@H](CCC(N)=O)NC(=O)[C@H](C)NC(=O)[C@H](Cc2c[nH]c3ccccc23)NC(=O)[C@H](Cc2ccc(O)cc2)NC(=O)[C@H](C)NC1=O)[C@@H](C)O [compound 437] | – | – | – | IC50 (MDM2): 10 to 100 nM; Ki (MDM2): < 10 nM; IC50 (MDMX): 10 to 100 nM; Ki (MDMX): 10 to 100 nM
CC(=O)N[C@@H](CC(C)C)C(=O)N[C@H](C(=O)N[C@@H](Cc1ccccc1)C(=O)N[C@]1(C)CCCCCC/C=C/CCC[C@@](C)(C(=O)N[C@@H](C)C(=O)N[C@@H](C)C(=O)N[C@@H](C)C(=O)N[C@@H](C)C(=O)N[C@@H](C)C(=O)N[C@H](C)C(N)=O)NC(=O)[C@H](CC(C)C)NC(=O)[C@H](CCC(N)=O)NC(=O)[C@H](C)NC(=O)[C@H](Cc2c[nH]c3cc(Cl)ccc23)NC(=O)[C@H](Cc2ccc(O)cc2)NC(=O)[C@H](CCC(=O)O)NC1=O)[C@@H](C)O [compound 555] | – | – | – | Ki (MDM2): < 10 nM; Ki (MDMX): 10 to 100 nM
CC(=O)N[C@@H](CC(C)C)C(=O)N[C@H](C(=O)N[C@@H](Cc1ccc(F)c(F)c1)C(=O)N[C@]1(C)CCCCCC/C=C/CCC[C@@](C)(C(=O)N[C@@H](C)C(=O)N[C@@H](C)C(=O)N[C@@H](C)C(=O)N[C@@H](C)C(=O)N[C@@H](C)C(=O)N[C@H](C)C(N)=O)NC(=O)[C@H](CC(C)C)NC(=O)[C@H](CCC(N)=O)NC(=O)[C@H](C)NC(=O)[C@H](Cc2c[nH]c3ccccc23)NC(=O)[C@H](Cc2ccc(O)cc2)NC(=O)[C@H](CCC(=O)O)NC1=O)[C@@H](C)O [compound 558] | – | – | – | Ki (MDM2): 10 to 100 nM; Ki (MDMX): 10 to 100 nM
CC(=O)N[C@@H](CC(C)C)C(=O)N[C@H](C(=O)N[C@@H](Cc1ccccc1)C(=O)N[C@]1(C)CCCCCC/C=C/CCC[C@@](C)(C(=O)N[C@@H](C)C(=O)N[C@@H](C)C(=O)N[C@@H](C)C(=O)N[C@@H](C)C(=O)N[C@@H](C)C(=O)NC(C)(C)C(N)=O)NC(=O)[C@H](CC(C)C)NC(=O)[C@H](CCC(N)=O)NC(=O)[C@H](C)NC(=O)[C@H](Cc2c[nH]c3ccccc23)NC(=O)[C@H](Cc2ccc(O)cc2)NC(=O)[C@H](CCC(=O)O)NC1=O)[C@@H](C)O [compound 567] | – | < 10 | 10 to 100 | –
CC(=O)N[C@@H](CC(C)C)C(=O)N[C@H](C(=O)N[C@@H](Cc1ccccc1)C(=O)N[C@]1(C)CCCCCC/C=C/CCC[C@@](C)(C(=O)N[C@@H](C)C(=O)N[C@@H](C)C(=O)N[C@@H](C)C(=O)N[C@@H](C)C(=O)N[C@@H](C)C(=O)N(C)CC(N)=O)NC(=O)[C@H](CC(C)C)NC(=O)[C@H](CCC(N)=O)NC(=O)[C@H](C)NC(=O)[C@H](Cc2c[nH]c3ccccc23)NC(=O)[C@H](Cc2ccc(O)cc2)NC(=O)[C@H](CCC(=O)O)NC1=O)[C@@H](C)O [compound 578] | – | < 10 | 10 to 100 | –

More lines, main results first:

Molar Ellipticity TFE-Molar Ellipticity Benign [1] [deg cm^2 dmol^−1] | Ki (MDM2; [2]) [nM] | Ki (MDMX; [3]) [nM] | Structure (SMILES) | also measured
−17760.8 | – | – | CC(=O)N[C@@H](CC(C)C)C(=O)N[C@H](C(=O)N[C@@H](Cc1ccccc1)C(=O)N[C@]1(C)CCCCCCC=CCCC[C@@](C)(C(=O)N[C@@H](C)C(=O)N[C@@H](C)C(=O)N[C@@H](C)C(=O)N[C@H](C)C(N)=O)NC(=O)[C@H](CC(C)C)NC(=O)[C@H](CCC(N)=O)NC(=O)[C@H](C)NC(=O)[C@H](Cc2c[nH]c3ccccc23)NC(=O)[C@H](Cc2ccc(O)cc2)NC(=O)[C@H](C)NC1=O)[C@@H](C)O (single isomer, unassigned) [compound 230] | –
−20045.4 | – | – | CC(=O)N[C@@H](CC(C)C)C(=O)N[C@H](C(=O)N[C@@H](Cc1ccccc1)C(=O)N[C@]1(C)CCCCCCC=CCCC[C@@](C)(C(=O)N[C@@H](CO)C(=O)N[C@@H](C)C(=O)N[C@@H](Cc2ccccc2)C(N)=O)NC(=O)[C@H](CC(C)C)NC(=O)[C@H](CCC(N)=O)NC(=O)[C@H](C)NC(=O)[C@H](Cc2c[nH]c3ccccc23)NC(=O)[C@H](Cc2ccc(O)cc2)NC(=O)[C@H](C)NC1=O)[C@@H](C)O [compound 7] (Ac-LTF[R8]AYWAQL[S5]SAF-NH2; staple 4-11) | –
16225.2 | – | – | CC(=O)N[C@@H](CC(C)C)C(=O)N[C@H](C(=O)N[C@@H](Cc1ccccc1)C(=O)N[C@]1(C)CCCCCCC=CCCC[C@@](C)(C(=O)N[C@@H](CO)C(=O)N[C@@H](C)C(=O)N[C@@H](C)C(N)=O)NC(=O)[C@H](CC(C)C)NC(=O)[C@H](CCC(N)=O)NC(=O)[C@H](C)NC(=O)[C@H](Cc2c[nH]c3ccccc23)NC(=O)[C@H](Cc2ccc(O)cc2)NC(=O)[C@H](C)NC1=O)[C@@H](C)O [compound 11] (Ac-LTF[R8]AYWAQL[S5]SAA-NH2; staple 4-11) | –
2912.9 | – | – | CC(=O)N[C@@H](CC(C)C)C(=O)N[C@H](C(=O)N[C@@H](Cc1ccccc1)C(=O)N[C@]1(C)CCCCCCC=CCCC[C@@](C)(C(=O)N[C@@H](Cc2c[nH]cn2)C(=O)N[C@@H](Cc2c[nH]cn2)C(=O)N[C@@H](CC(C)C)C(=O)N[C@H](C)C(N)=O)NC(=O)[C@H](CC(C)C)NC(=O)[C@H](CCC(N)=O)NC(=O)[C@H](C)NC(=O)[C@H](Cc2c[nH]c3ccccc23)NC(=O)[C@H](Cc2ccc(O)cc2)NC(=O)[C@H](C)NC1=O)[C@@H](C)O [compound 43] (Ac-LTF[R8]AYWAQL[S5]HHL[dA]-NH2; staple 4-11) | –
– | < 10 | 10 to 100 | CC(=O)N[C@@H](CC(C)C)C(=O)N[C@H](C(=O)N[C@@H](Cc1ccccc1)C(=O)N[C@]1(C)CCCCCC/C=C/CCC[C@@](C)(C(=O)N[C@@H](C)C(=O)N[C@@H](C)C(=O)N[C@@H](C)C(=O)NC(C)(C)C(=O)N[C@@H](C)C(=O)N[C@H](C)C(N)=O)NC(=O)[C@H](CC(C)C)NC(=O)[C@H](CCC(N)=O)NC(=O)[C@H](C)NC(=O)[C@H](Cc2c[nH]c3ccccc23)NC(=O)[C@H](Cc2ccc(O)cc2)NC(=O)[C@H](CCC(=O)O)NC1=O)[C@@H](C)O [compound 564] (Ac-LTF[R8]EYWAQL[S5]AAA[Aib]A[dA]-NH2; staple (E) 4-11) | –

Source: patent US11091522B2, “Peptidomimetic macrocycles and uses thereof” (priority 2018, dated 2021)
